According to article PMC10045534, “Preparation and Evaluation of 6-Gingerol Derivatives as Novel Antioxidants and Antiplatelet Agents” (Antioxidants, 2023):

Experiments:
PAMPA-BBB permeability = assay type: in vitro ADME; settings: after 4 h at 37 °C in PBS, pH 7.4, mean ± SEM, n = 3; for Papp at 4 h, 500 μM: PAMPA, read-out: PAMPA-BBB Pe
Description: (§1) Preparative purifications over RP-HPLC were performed on a Kinetex XB C18 (5 μm, 250 × 21.2 mm) column on an Armen Spot Prep II integrated HPLC purification system (Gilson, Middleton, WI, USA) with dual-wavelength detection, with an adequately chosen combination of acetonitrile–water, and a flow rate of 15 mL/min. The purity of the compounds obtained was determined by RP-HPLC analyses on a system of two Jasco PU 2080 pumps, a Jasco AS-2055 Plus intelligent sampler connected to a JASCO LC-Net II/ADC equipped with a Jasco MD-2010 Plus PDA detector (Jasco International Co. Ltd., Hachioji, Tokyo, Japan) utilizing a Kinetex C-18 (5 μm, 250 × 4.6 mm) column (Phenomenex Inc., Torrance, CA, USA) and applying a gradient of 30%–100% aqueous AcN in 30 min followed by 100% ACN for 10 min with a flow rate of 1 mL/min. Analysis of samples from the PAMPA and kinetic solubility assays was performed the same way, by using 3-point calibrations and integrating each compound at its UV absorption maximum.
Blood–brain barrier-specific (BBB) permeability measurements were carried out us- ing the PAMPA-BBB model. […] The solutions were sonicated for 10 min at room temperature. To prepare the artificial BBB-specific membrane, 16 mg BPLE were dissolved in 600 μL of n-dodecane:n-hexane (25:75). Each well of the donor plate (MultiscreenTM-IP, MAIPNTR10, pore size […], Merck kGaA) was coated with 5 μL lipid solution and fitted into the acceptor plate containing 300 μL PBS (pH 7.4) with 5% DMSO, and 150–150 μL of the PBS solutions (made from the DMSO stock solutions) were placed on the donor plate’s artificial membrane. The sandwich plate system was covered with a tissue of wet paper and a plastic lid to avoid evaporation of the solvent, and it was incubated at 37 °C for 4 h. In the end, the initial 500 μM solutions ( cD0 ), the donor ( cDt ) and acceptor solution ( cAt ) were analysed by HPLC-UV (see Section 2.1). BBB permeability was calculated using the effective permeability equation used for iso-pH conditions described by A. Avdeef as follows. (2) Pe=−2.303/A·t−τss·1/1+rv·lg−rv+1+rv/1−MR·cDt/cD0 (3) MR=1−cDt/cD0−VAcAt/VDcD0 where A is the filter area (0.3 cm^2), VD and VA are the volumes in the donor (0.15 cm^3) and acceptor phase (0.3 cm^3), t is the incubation time (s), τss is the time to reach steady state (s), cDt is the concentration of the compound in the donor phase at time point t (mol/cm^3), cD0 is the concentration of the compound in the donor phase at time point zero (mol/cm^3), cAt is the concentration of the compound in the acceptor phase at time point t (mol/cm^3), rv is the aqueous compartment volume ratio (VD/VA).

washed human platelets = assay: Arachidonic acid-induced platelet aggregation (turbidimetric aggregometer); assay type: cell-based; settings: for IC50: Platelet, 0.05 h, washed human platelets treated 3 min, then arachidonic acid (100 μM), mean ± SEM, n = 3, read-out: Antiplatelet IC50
Description: All bioactivity data processing, including the calculation of inhibition percentage, mean and corresponding standard error of the mean (SEM), and IC50 values, was performed by GraphPad Prism 8.0 (La Jolla, CA, USA). IC50 values were calculated from the sigmoidal dose–response curves obtained by the log(inhibitor) vs. response and variable slope (DPPH assay) or the log(inhibitor) vs. normalised response and variable slope nonlinear regression model. On the results obtained, no statistical evaluation was performed; instead, differences greater than two-fold were considered relevant. Plotting of the antiplatelet and COX-1 inhibitory IC50 values and the linear regression of the data was performed by Microsoft Excel.
Human platelet suspension (3 × 10^8/mL in Tyrode’s buffer) was prepared as previously described. The protocol for this study was approved by the institutional review board of Kaohsiung Medical University Hospital (Kaohsiung City, Taiwan). Platelets pre-treated with DMSO (vehicle control) or test compounds were stimulated with arachidonic acid (AA), and platelet aggregation was measured using turbidimetric aggregometer (Chrono-Log Co., Havertown, PA, USA) at 37 °C under stirring conditions (1200 rpm).

xanthine oxidase (XO) = biological target: T1, xanthine oxidase (XO) (Bos taurus, UniProt P80457); assay: Xanthine oxidase inhibition, spectrophotometric; assay type: biochemical; settings: read-out: XO Inhibition (%)
T1 construct: purchased Sigma (Merck KGaA)
T1 sequence (P80457 2-1332 limits assumed): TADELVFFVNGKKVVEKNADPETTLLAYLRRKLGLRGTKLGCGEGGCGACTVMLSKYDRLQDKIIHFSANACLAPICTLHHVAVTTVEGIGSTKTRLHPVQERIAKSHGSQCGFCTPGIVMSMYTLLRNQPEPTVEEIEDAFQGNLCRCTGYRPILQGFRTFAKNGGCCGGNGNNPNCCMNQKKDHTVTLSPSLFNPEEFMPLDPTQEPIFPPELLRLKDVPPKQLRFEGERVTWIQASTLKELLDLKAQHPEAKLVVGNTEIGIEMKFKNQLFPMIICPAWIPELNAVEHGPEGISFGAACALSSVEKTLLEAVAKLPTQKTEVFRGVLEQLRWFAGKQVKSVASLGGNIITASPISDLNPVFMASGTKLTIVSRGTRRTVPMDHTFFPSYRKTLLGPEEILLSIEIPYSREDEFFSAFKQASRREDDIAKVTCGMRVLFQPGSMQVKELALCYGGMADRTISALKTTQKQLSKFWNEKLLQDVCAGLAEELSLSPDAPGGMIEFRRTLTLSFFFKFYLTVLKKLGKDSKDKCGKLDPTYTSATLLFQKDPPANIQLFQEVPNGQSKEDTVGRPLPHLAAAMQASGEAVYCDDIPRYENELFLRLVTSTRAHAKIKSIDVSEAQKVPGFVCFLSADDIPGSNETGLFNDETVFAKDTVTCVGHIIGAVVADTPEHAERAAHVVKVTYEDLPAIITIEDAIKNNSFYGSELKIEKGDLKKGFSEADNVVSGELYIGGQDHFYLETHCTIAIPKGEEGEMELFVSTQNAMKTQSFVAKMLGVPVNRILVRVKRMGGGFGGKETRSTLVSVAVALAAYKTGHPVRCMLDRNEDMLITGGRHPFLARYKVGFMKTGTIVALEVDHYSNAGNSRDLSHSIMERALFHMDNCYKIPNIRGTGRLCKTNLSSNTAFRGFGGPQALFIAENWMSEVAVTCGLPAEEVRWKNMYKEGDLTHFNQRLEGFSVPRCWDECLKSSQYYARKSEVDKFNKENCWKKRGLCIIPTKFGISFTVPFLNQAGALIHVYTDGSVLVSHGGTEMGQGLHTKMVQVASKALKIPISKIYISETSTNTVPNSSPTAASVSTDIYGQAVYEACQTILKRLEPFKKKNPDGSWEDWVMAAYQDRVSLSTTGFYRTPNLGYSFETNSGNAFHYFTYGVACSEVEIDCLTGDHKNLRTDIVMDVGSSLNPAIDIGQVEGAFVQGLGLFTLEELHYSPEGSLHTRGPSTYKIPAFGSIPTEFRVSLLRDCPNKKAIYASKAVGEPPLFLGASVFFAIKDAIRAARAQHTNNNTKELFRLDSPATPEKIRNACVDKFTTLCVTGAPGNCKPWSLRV
Description: The xanthine oxidase (XO) inhibitory activity of the compounds was determined using continuous spectrophotometric rate based on a modified protocol of Sigma. […]. In a 96-well plate, the final reaction mixture consisted of 10 µL of sample (dissolved in DMSO, […] stock solution, 100 µM final), 100 µL of xanthine solution (0.15 mM, pH = 7.4), 140 µL of buffer (potassium phosphate, pH = 7.5) and 50 µL of XO (0.2 units/mL). When measuring the enzyme activity, control buffer was used in place of the sample. Allopurinol was applied as a control. The reaction was initiated by the automatic addition of 50 µL of XO solution. The absorbance of XO-induced uric acid production from xanthine was measured at 290 nm for 3 min in a 96-well plate on a BMG Labtech FluoStar Optima plate reader. The inhibitory percentage values were calculated by using Graph Pad Prism 8.0 (La Jolla, CA, USA).

[1] = Kinetic aqueous solubility in PBS pH 7.4; assay type: physicochemical; settings: after 2 h at 37 °C in PBS, 500 μM target concentration, mean ± SEM, n = 3; for solubility kinetic at 2 h: PBS (pH 7.4), 37 °C, pH 7.4, aqueous buffer, kinetic from dmso stock
Description: as §1
In a 96-well polypropylene plate (Greiner Bio-One, Kremsmünster, Austria), 15 μL stock solutions were added to 285 μL PBS (pH 7.4) to make starting donor solution with 500 μM as target concentration. For each sample, 3 replicates were measured. The samples were covered and shaken at 37 °C, 300 rpm for 2 h (Heidolph Titramax 1000, Heidolph Instruments GmbH & Co. KG, Schwabach, Germany). After that, each sample was transferred into a filter plate (MSSBLPC, Multiscreen Filter plate, Merck kGaA) and filtered (Vaccum Manifold, Merck kGaA, Darmstadt, Germany). The filtrates were transferred into HPLC vials, and acetonitrile (AcN) was added to aliquot to avoid precipitation. The final solvent ratio was AcN:PBS (70:30). Filtrate concentration was determined by HPLC-UV (see Section 2.1) using 3-points calibration.

Row | SMILES | Papp at 4 h, 500 μM (PAMPA-BBB permeability) [nm/s] | PAMPA-BBB MR (%) (PAMPA-BBB permeability) | PAMPA-BBB Pe (PAMPA-BBB permeability) | IC50 (washed human platelets) [µM] | inhibition at 100 µM (xanthine oxidase (XO)) [%] | Kinetic Solubility [1] | solubility kinetic at 2 h [1] [µM] | times weaker antiplatelet effect than the most promising compounds (washed human platelets; AA-induced platelet aggregation, ratio of IC50 values) | antiplatelet activity (in words) (washed human platelets; AA-induced platelet aggregation)
1 | CCCCC[C@H](O)C[C@@H](O)CCc1ccc(O)c(OC)c1 [Compound 6, (3S,5S)-1-(4-hydroxy-3-methoxyphenyl)decane-3,5-diol] | 27.4 ± 1.6 | 18.5 ± 2.7% | ≥ 25 ·10^−7 cm/s | 45.1 ± 6 | < 5 | – | – | – | –
2 | CCCCCc1cc(/C=C/c2ccc(O)cc2)on1 [Compound 18, (E)-4-(2-(3-pentylisoxazol-5-yl)vinyl)phenol] | – | – | – | 32 ± 10.1 | < 5 | < LOD | – | – | –
3 | CCCCC/C=C/C(=O)CCc1ccc(O)c(OC)c1 [Compound 2, 6-shogaol] | 31.7 ± 3.6 | 20.9 ± 3.9% | ≥ 25 ·10^−7 cm/s | 2.8 ± 0.5 | < 5 | – | > 100 | – | –
4 | CCCCCc1cc(CCc2ccc(O)c(OC)c2)[nH]n1 [Compound 14, 2-methoxy-4-(2-(3-pentyl-1H-pyrazol-5-yl)ethyl)phenol] | 15.8 ± 0.8 | 33.6 ± 4.6% | – | 4.1 ± 1.2 | 10.1 ± 1.65 | – | 277 ± 5.5 | – | –
5 | CCCCCc1cc(/C=C/c2ccc(O)c(OC)c2)on1 [Compound 17, (E)-2-methoxy-4-(2-(3-pentylisoxazol-5-yl)vinyl)phenol] | – | – | – | 3.1 ± 0.9 | < 5 | – | 10.9 ± 2 | – | –
6 | CCCCC[C@H](O)CC(=O)CCc1ccc(O)c(OC)c1 [Compound 1, (S)-5-hydroxy-1-(4-hydroxy-3-methoxyphenyl)decan-3-one] | 35.2 ± 2.4 | 23.8 ± 1.5% | ≥ 25 ·10^−7 cm/s | 45.9 ± 5.1 | < 5 | – | – | up to 22 times | –
7 | CCCCCc1cc(CCc2ccc(O)cc2)[nH]n1 [Compound 15, 4-(2-(3-pentyl-1H-pyrazol-5-yl)ethyl)phenol] | 20.7 ± 4.3 | 3.1 ± 5.7% | – | > 100 | 12.3 ± 0.9 | – | 203 ± 5.5 | – | –
8 | CCCCC[C@H](O)C[C@H](O)CCc1ccc(O)c(OC)c1 [Compound 5, (3R,5S)-1-(4-hydroxy-3-methoxyphenyl)decane-3,5-diol] | 33.9 | 9.1 ± 7.6% | ≥ 25 ·10^−7 cm/s | 51.7 ± 2.7 | < 5 | – | – | – | –
9 | CCCCCCCC(CCc1ccc(O)c(OC)c1)=NO [Compound 4, 1-(4-hydroxy-3-methoxyphenyl)decan-3-one oxime] | – | -/4.0 ± 11.1% | – | 5.2 ± 0.4 | 10.6 ± 2.3 | – | 75.1 ± 7.3 | – | –
10 | CCCCCCCNC(=O)CCc1ccc(O)c(OC)c1 [Compound 22] | 32.2 ± 3.4 | 12.1 ± 5.2% | ≥ 25 ·10^−7 cm/s | 35.9 ± 23.7 | < 5 | – | – | – | only moderate activity
11 | CCCCCc1cc(/C=C/c2ccc(O)cc2)[nH]n1 [Compound 16, (E)-4-(2-(3-pentyl-1H-pyrazol-5-yl)vinyl)phenol] | – | – | – | 3.5 ± 0.9 | 16 ± 4.05 | – | 89.4 ± 3.1 | – | –
12 | CCCCCCCC(=O)CCc1ccc(O)c(OC)c1 [Compound 3, 4,5-dihydro-6-shogaol] | – | -/11.0 ± 0.7% | – | 2.1 ± 1 | < 5 | – | 45.2 ± 2.7 | – | –
